Assay results: patent US8022103B2, “Ester prodrugs of prostratin and related phorbol compounds” (Salvia Sciences, Inc., priority 2005, dated 2011)
In brackets after ≈: the same amount, converted by molar mass. Where two headings read alike, the source gives them in different places.

System: SIVMac251
Assay: PBMC antiviral assay, SIVMac251
Format: cell-based, SIV
Details: SIVMac251, human PBMCs
Method: Compounds SA-101A and SA-101B were tested for antiviral activity against HIV-1 in peripheral blood mononuclear cells (PBMC) acutely infected with the HIV-1 isolates. PBMCs were derived from normal HIV-1 negative donors, and cultured under conditions which promote cell survival and HIV replication. Fresh human blood was obtained commercially from Biological Specialty Corporation (Colmar, Pa.). The low passage clinical isolates HIV-1Ba-L, HIVIIIB, and SIVmac251 were from the NIAID AIDS Research and Reference Reagent Program. Immediately before use, pre-titered aliquot of the viruses were removed from storage in a freezer (−80° C.) and thawed rapidly to room temperature in a biological safety cabinet. Phytohemagglutinin (PHA-P) was obtained from Sigma (St. Louis, Mo.) and recombinant IL-2 was obtained from R&D Systems Inc. (Minneapolis, Minn.). Antiviral activity was tested from a high-test concentration of 100 μM or 100 μg/ml with nine ½-log serial dilutions of the compound to derive applicable IC50 (concentration inhibition virus replication by 50%), IC90 (concentration inhibition virus replication by 90%), TC50 (concentration decreasing cell viability by 50%) and TI (therapeutic index: TC50/IC50) values.
Preparation of PMBC. Fresh Human PBMCs, Seronegative for HIV and HBV, were isolated from screened donors (Interstate Blood Bank, Inc. Memphis, Tenn.). Cells were pelleted/washed 2-3 times by low speed centrifugation and resuspensded in PBS to remove contaminating platelets. The leukophoresed blood was then diluted 1:1 with Dulbecco's Phosphate Buffered Saline (DPBS) and layered over 14 mL of Lymphocyte Separation Medium (LSM; Cellgro® by Mediatech, Inc.; density 1.078+/−0.002 g/ml; Cat. # 85-072-CL) in a 50 mL centrifuge tube and then centrifuged for 30 minutes at 600×g. […]
PMBC assay. […] Pooling (mixing) of mononuclear cells from more than one donor is used to minimize the variability observed between individual donors, which results from quantitative and qualitative differences in HIV infection and overall response to the PHA and IL-2 of primary lymphocyte populations. […]

Q: `CC(=O)OC12CC(C)C3(O)C(C=C(COC(=O)CCC(=O)O)CC4(O)C(=O)C(C)=CC43)C1C2(C)C` (stereo not drawn) [SA-101B, Prostratin Succinate] was tested. Which IC90 (40% Human AB serum) did it give?
A: Its IC90 is >1.00 µg/mL.

Q: With `CC(=O)O[C@@]12C[C@@H](C)[C@@]3(O)[C@@H](C=C(CO)C[C@]4(O)C(=O)C(C)=C[C@@H]34)[C@@H]1C2(C)C` [SA-101A, 12-deoxyphorbol 13-acetate] as the compound, how does the IC50 (Simian immunodeficiency virus, PBMC) read?
A: Its IC50 is 0.39 µg/mL (≈ 0.999 µM).

Q: And the IC90 (Simian immunodeficiency virus, PBMC, read-out: IC90)?
A: The IC90 was 0.9 µg/mL (≈ 2.3 µM).
